pIC50: −log10 of the molar value. Blank lines part the entries; values can stand above or below the compound they belong to.
System: 171881-019-R-J1-PDC tumor spheroid viability
Assay: Anticancer human tumor 171881-019-R-J1-PDC patient-derived invasive breast carcinoma cell line growth inhibition [PI3K]
Settings: spheroids with HUVEC and MSC; for pIC50: curve of first compound; for viability, T/C: stronger effect = lower value
Method in brief: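 We assembled tumor spheroids that included a stromal compartment of HUVEC and MSCs, then exposed them to targeted agents alone and together with PI3K pathway inhibitors. Concentration series descended by half-log from clinically achievable Cmax levels. Viability served as the endpoint.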

[1] = second compound 0.00316 µM, first compound 0.0316 µM
[2] = second compound 0.00316 µM, first compound 0.1 µM
[3] = second compound 0.00316 µM, first compound 0.316 µM
[4] = second compound 0.00316 µM, first compound 1 µM
[5] = second compound 0.00316 µM, first compound 3.16 µM
[6] = second compound 0.00316 µM, first compound 10 µM
[7] = second compound 0.01 µM, first compound 0.0316 µM
[8] = second compound 0.01 µM, first compound 0.1 µM
[9] = second compound 0.01 µM, first compound 0.316 µM
[10] = second compound 0.01 µM, first compound 1 µM
[11] = second compound 0.01 µM, first compound 3.16 µM
[12] = second compound 0.01 µM, first compound 10 µM
[13] = second compound 0.0316 µM, first compound 0.0316 µM
[14] = second compound 0.0316 µM, first compound 0.1 µM
[15] = second compound 0.0316 µM, first compound 0.316 µM
[16] = second compound 0.0316 µM, first compound 1 µM
[17] = second compound 0.0316 µM, first compound 3.16 µM
[18] = second compound 0.0316 µM, first compound 10 µM
[19] = second compound 0.1 µM, first compound 0.0316 µM
[20] = second compound 0.1 µM, first compound 0.1 µM
[21] = second compound 0.1 µM, first compound 0.316 µM
[22] = second compound 0.1 µM, first compound 1 µM
[23] = second compound 0.1 µM, first compound 3.16 µM
[24] = second compound 0.1 µM, first compound 10 µM
[25] = second compound 0.316 µM, first compound 0.0316 µM
[26] = second compound 0.316 µM, first compound 0.1 µM
[27] = second compound 0.316 µM, first compound 0.316 µM
[28] = second compound 0.316 µM, first compound 1 µM
[29] = second compound 0.316 µM, first compound 3.16 µM
[30] = second compound 0.316 µM, first compound 10 µM
[31] = second compound 1 µM, first compound 0.0316 µM
[32] = second compound 1 µM, first compound 0.1 µM
[33] = second compound 1 µM, first compound 0.316 µM
[34] = second compound 1 µM, first compound 1 µM
[35] = second compound 1 µM, first compound 3.16 µM
[36] = second compound 1 µM, first compound 10 µM
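Further: spheroids exposed to compound for 7 days before viability read.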
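Wherever viability, T/C is given: 100% = DMSO vehicle-treated spheroids.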

- pIC50 (second compound 0.00316 µM): 5.24
- pIC50 (second compound 0.01 µM): 5.24
- pIC50 (second compound 0.0316 µM): 5.31
- pIC50 (second compound 0.1 µM): 5.46
- pIC50 (second compound 0.316 µM): > 7.50
- pIC50 (second compound 1 µM): > 7.50
SMILES: CCCS(=O)(=O)Nc1ccc(F)c(C(=O)c2c[nH]c3ncc(-c4ccc(Cl)cc4)cc23)c1F + CC(Nc1ccc2c(c1)OCCn1cc(N3C(=O)OCC3C(F)F)nc1-2)C(N)=O
- viability, T/C [1]: 92.3%
- viability, T/C [2]: 109%
- viability, T/C [3]: 92.9%
- viability, T/C [4]: 109%
- viability, T/C [5]: 94.6%
- viability, T/C [6]: 10%
- viability, T/C [7]: 78.4%
- viability, T/C [8]: 87.2%
- viability, T/C [9]: 101%
- viability, T/C [10]: 102%
- viability, T/C [11]: 92.6%
- viability, T/C [12]: 11.1%
- viability, T/C [13]: 63.3%
- viability, T/C [14]: 64.9%
- viability, T/C [15]: 81.9%
- viability, T/C [16]: 83.3%
- viability, T/C [17]: 83%
- viability, T/C [18]: 7.38%
- viability, T/C [19]: 46.7%
- viability, T/C [20]: 51.4%
- viability, T/C [21]: 53.9%
- viability, T/C [22]: 57%
- viability, T/C [23]: 61.7%
- viability, T/C [24]: 5.11%
- viability, T/C [25]: 32.5%
- viability, T/C [26]: 32.4%
- viability, T/C [27]: 42%
- viability, T/C [28]: 44.7%
- viability, T/C [29]: 42.3%
- viability, T/C [30]: 5%
- viability, T/C [31]: 21%
- viability, T/C [32]: 28.4%
- viability, T/C [33]: 28.4%
- viability, T/C [34]: 33.5%
- viability, T/C [35]: 35.6%
- viability, T/C [36]: 3.55%

- IC50 (curve of compound): 653 nM [middle of 4 runs]
SMILES: Cn1cnc2c(F)c(Nc3ccc(Br)cc3Cl)c(C(=O)NOCCO)cc21
- viability, T/C (compound 0.00949 µM): 90.4% [middle of 4 runs]
- viability, T/C (compound 0.03 µM): 83.8% [middle of 4 runs]
- viability, T/C (compound 0.0949 µM): 80.9% [middle of 4 runs]
- viability, T/C (compound 0.3 µM): 64.1% [middle of 4 runs]
- viability, T/C (compound 0.949 µM): 42.6% [middle of 4 runs]
- viability, T/C (compound 3 µM): 19% [middle of 4 runs]

- pIC50 (second compound 0.00316 µM): 6.70
- pIC50 (second compound 0.01 µM): > 7.50
- pIC50 (second compound 0.0316 µM): > 7.50
- pIC50 (second compound 0.1 µM): > 7.50
- pIC50 (second compound 0.316 µM): > 7.50
- pIC50 (second compound 1 µM): > 7.50
SMILES: CC(C)NCC(C(=O)N1CCN(c2ncnc3c2C(C)CC3O)CC1)c1ccc(Cl)cc1 (stereo unspecified) + COc1c(OCCCN2CCOCC2)ccc2c3n(c(=NC(=O)c4cnc(N)nc4)nc12)CCN3
- viability, T/C [1]: 63.8%
- viability, T/C [2]: 57%
- viability, T/C [3]: 44.8%
- viability, T/C [4]: 27.6%
- viability, T/C [5]: 11.6%
- viability, T/C [6]: 8.17%
- viability, T/C [7]: 48.5%
- viability, T/C [8]: 47%
- viability, T/C [9]: 36.4%
- viability, T/C [10]: 24.1%
- viability, T/C [11]: 12.4%
- viability, T/C [12]: 8.98%
- viability, T/C [13]: 25%
- viability, T/C [14]: 24.9%
- viability, T/C [15]: 25.8%
- viability, T/C [16]: 14.4%
- viability, T/C [17]: 8.88%
- viability, T/C [18]: 5.68%
- viability, T/C [19]: 7.43%
- viability, T/C [20]: 8.22%
- viability, T/C [21]: 8.03%
- viability, T/C [22]: 6.41%
- viability, T/C [23]: 5.14%
- viability, T/C [24]: 3.1%
- viability, T/C [25]: 1.9%
- viability, T/C [26]: 2.03%
- viability, T/C [27]: 2.26%
- viability, T/C [28]: 2.16%
- viability, T/C [29]: 1.57%
- viability, T/C [30]: 1.13%
- viability, T/C [31]: 0.99%
- viability, T/C [32]: 1.4%
- viability, T/C [33]: 1.49%
- viability, T/C [34]: 1.35%
- viability, T/C [35]: 1.05%
- viability, T/C [36]: 0.68%

From PubChem BioAssay AID1963986 (Molecular Pharmacology Branch, DTP, NCI, 2024)
